# From patent US12209081B2 (Katholieke Universiteit Leuven, priority 2020, dated 2025)
# Molecular target: mouse TRPM3α2 (mTRPM3) ion channel (Mus musculus (Mouse), UniProt J9SQF3)
# Assay: TRPM3 ion channel driven Ca2+ uptake, Fluo-4 AM assay, mTRPM3alpha2 overexpressing flip-in HEK293 cells stimulated with pregnenolone sulfate
# Type: cell-based
# Details: PS (50 μM) stimulated, cpds. 500-599
# Outline: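 Read-out is Ca2+ influx via Fluo-4 AM fluorescence at 485/535 nm, taken right after seeding ~2000 cells/well onto compound with 50 μM PS. Inhibition computed from RFU between vehicle-stimulated and positive-control-inhibitor wells; cells were mTRPM3α2-overexpressing flip-in HEK293.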
# Chain of mouse TRPM3α2 (mTRPM3) ion channel (J9SQF3 other isoform, or with tags, fused parts or gaps): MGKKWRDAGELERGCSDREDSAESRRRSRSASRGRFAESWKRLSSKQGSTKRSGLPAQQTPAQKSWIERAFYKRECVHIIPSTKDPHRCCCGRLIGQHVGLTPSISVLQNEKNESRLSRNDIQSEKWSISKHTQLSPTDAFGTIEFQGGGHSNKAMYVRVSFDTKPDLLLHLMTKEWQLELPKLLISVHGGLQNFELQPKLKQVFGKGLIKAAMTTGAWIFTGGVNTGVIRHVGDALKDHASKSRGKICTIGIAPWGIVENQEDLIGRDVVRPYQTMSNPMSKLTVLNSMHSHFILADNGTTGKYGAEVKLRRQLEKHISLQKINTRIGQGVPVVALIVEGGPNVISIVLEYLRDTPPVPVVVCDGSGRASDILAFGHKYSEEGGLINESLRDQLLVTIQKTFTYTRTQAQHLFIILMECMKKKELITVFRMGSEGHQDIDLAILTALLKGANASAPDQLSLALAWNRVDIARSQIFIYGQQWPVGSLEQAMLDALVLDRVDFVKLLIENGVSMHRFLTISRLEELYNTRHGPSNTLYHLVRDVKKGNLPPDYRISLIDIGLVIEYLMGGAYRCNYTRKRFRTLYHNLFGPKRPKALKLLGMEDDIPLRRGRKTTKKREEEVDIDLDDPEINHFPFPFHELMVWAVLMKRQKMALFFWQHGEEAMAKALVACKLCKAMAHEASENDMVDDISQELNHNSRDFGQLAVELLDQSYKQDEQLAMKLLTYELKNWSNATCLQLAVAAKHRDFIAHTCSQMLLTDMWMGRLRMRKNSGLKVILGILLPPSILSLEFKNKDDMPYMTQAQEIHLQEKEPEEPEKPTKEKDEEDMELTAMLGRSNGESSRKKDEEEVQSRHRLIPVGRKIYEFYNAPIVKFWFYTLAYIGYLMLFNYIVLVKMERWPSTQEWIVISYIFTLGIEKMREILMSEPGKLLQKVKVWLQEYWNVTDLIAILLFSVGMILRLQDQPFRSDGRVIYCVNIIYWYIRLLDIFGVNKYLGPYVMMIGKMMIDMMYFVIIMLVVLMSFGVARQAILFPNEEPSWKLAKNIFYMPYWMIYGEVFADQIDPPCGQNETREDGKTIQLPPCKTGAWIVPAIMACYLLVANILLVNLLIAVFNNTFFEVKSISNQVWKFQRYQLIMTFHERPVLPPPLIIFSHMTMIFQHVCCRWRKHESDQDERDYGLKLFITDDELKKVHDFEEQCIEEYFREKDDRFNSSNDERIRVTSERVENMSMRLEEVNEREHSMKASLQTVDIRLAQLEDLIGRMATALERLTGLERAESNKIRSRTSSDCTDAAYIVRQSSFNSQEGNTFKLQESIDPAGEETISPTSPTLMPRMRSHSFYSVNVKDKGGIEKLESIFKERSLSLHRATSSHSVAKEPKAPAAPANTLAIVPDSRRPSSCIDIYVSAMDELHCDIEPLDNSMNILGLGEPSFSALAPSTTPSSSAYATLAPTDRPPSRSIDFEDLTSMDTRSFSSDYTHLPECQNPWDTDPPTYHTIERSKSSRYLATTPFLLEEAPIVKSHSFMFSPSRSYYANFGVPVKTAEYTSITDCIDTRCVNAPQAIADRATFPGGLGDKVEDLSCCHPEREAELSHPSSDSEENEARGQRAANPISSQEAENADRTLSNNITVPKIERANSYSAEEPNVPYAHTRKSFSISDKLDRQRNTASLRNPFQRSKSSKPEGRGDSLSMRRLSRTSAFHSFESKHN
row,SMILES,IC50 [nM]
1,"Cc1ncc(COc2ccc3oc(C)c(C(=O)NCC(C)(C)F)c3c2)s1 [compound 504, N-(2-fluoro-2-methylpropyl)-2-methyl-5-((2-methylthiazol-5-yl)methoxy)benzofuran-3-carboxamide]",< 1000
2,"Cc1ncsc1COc1ccc2oc(C)c(C(=O)NCC(C)(C)F)c2c1 [compound 505, N-(2-fluoro-2-methylpropyl)-2-methyl-5-((4-methylthiazol-5-yl)methoxy)benzofuran-3-carboxamide]",< 1000
3,"Cc1ncsc1COc1ccc2oc(C)c(C(=O)NC3(C(=O)N(C)C)COC3)c2c1 [compound 509, N-(3-(dimethylcarbamoyl)oxetan-3-yl)-2-methyl-5-((4-methylthiazol-5-yl)methoxy)benzofuran-3-carboxamide]",< 1000
4,"Cc1oc2ccc(OCc3ccnn3C)cc2c1C(=O)NC1(CO)COC1 [compound 524, N-(3-(hydroxymethyl)oxetan-3-yl)-2-methyl-5-((1-methyl-1H-pyrazol-5-yl)methoxy)benzofuran-3-carboxamide]",< 1000
5,"Cc1ncc(COc2ccc3oc(C)c(C(=O)NC4(CO)COC4)c3c2)s1 [compound 525, N-(3-(hydroxymethyl)oxetan-3-yl)-2-methyl-5-((2-methylthiazol-5-yl)methoxy)benzofuran-3-carboxamide]",< 1000
6,"Cc1oc2ccc(OCc3ccccn3)cc2c1C(=O)NC1(CO)COC1 [compound 526, N-(3-(hydroxymethyl)oxetan-3-yl)-2-methyl-5-(pyridin-2-ylmethoxy)benzofuran-3-carboxamide]",< 1000
7,"Cc1oc2ccc(OCc3nccs3)cc2c1C(=O)NC1(CO)COC1 [compound 527, N-(3-(hydroxymethyl)oxetan-3-yl)-2-methyl-5-(thiazol-2-ylmethoxy)benzofuran-3-carboxamide]",< 1000
8,"Cc1ncsc1COc1ccc2oc(C)c(C(=O)N(C)C3(CO)COC3)c2c1 [compound 529, N-(3-(hydroxymethyl)oxetan-3-yl)-N.2-dimethyl-5-((4-methylthiazol-5-yl)methoxy)benzofuran-3-carboxamide]",< 1000
9,"Cc1ncsc1COc1ccc2oc(C)c(C(=O)NCC(C)(C)C(N)=O)c2c1 [compound 576, N-(3-amino-2,2-dimethyl-3-oxopropyl)-2-methyl-5-((4-methylthiazol-5-yl)methoxy)benzofuran-3-carboxamide]",< 1000
10,"Cc1oc2ccc(OCc3ccnn3C)cc2c1C(=O)NC1(C(N)=O)COC1 [compound 579, N-(3-carbamoyloxetan-3-yl)-2-methyl-5-((1-methyl-1H-pyrazol-5-yl)methoxy)benzofuran-3-carboxamide]",< 1000
11,"Cc1oc2ccc(OCc3nccs3)cc2c1C(=O)NC1(C(N)=O)COC1 [compound 582, N-(3-carbamoyloxetan-3-yl)-2-methyl-5-(thiazol-2-ylmethoxy)benzofuran-3-carboxamide]",< 1000
12,"Cc1ncsc1COc1ccc2oc(C)c(C(=O)NC3(C(N)=O)COC3)c2c1F [compound 583, N-(3-carbamoyloxetan-3-yl)-4-fluoro-2-methyl-5-((4-methylthiazol-5-yl)methoxy)benzofuran-3-carboxamide]",< 1000
13,"Cc1ncsc1COc1cc(F)c2oc(C)c(C(=O)NC3(C(N)=O)COC3)c2c1 [compound 588, N-(3-carbamoyloxetan-3-yl)-7-fluoro-2-methyl-5-((4-methylthiazol-5-yl)methoxy)benzofuran-3c-arboxamide]",< 1000

# Now from value to molecule:
row,IC50 [nM],SMILES
1,< 1000,"Cc1ncsc1COc1ccc2oc(C)c(C(=O)NCC(C)(C)O)c2c1 [compound 506, N-(2-hydroxy-2-methylpropyl)-2-methyl-5-((4-methylthiazol-5-yl)methoxy)benzofuran-3-carboxamide]"
2,< 1000,"Cc1ncsc1COc1ccc2oc(C)c(C(=O)NC(=O)C3(N(C)C)COC3)c2c1 [compound 508, N-(3-(dimethylamino)oxetane-3-carbonyl)-2-methyl-5-((4-methylthiazol-5-yl)methoxy)benzofuran-3-carboxamide]"
3,< 1000,"COc1ncccc1COc1ccc2oc(C)c(C(=O)NC3(CO)COC3)c2c1 [compound 528, N-(3-(hydroxymethyl)oxetan-3-yl)-5-((2-methoxypyridin-3-yl)methoxy)-2-methylbenzofuran-3-carboxamide]"
4,< 1000,"Cc1ncsc1COc1ccc2oc(C)c(C(=O)NC3(CO)CC(F)(F)C3)c2c1 [compound 537, N-(3,3-difluoro-1-(hydroxymethyl)cyclobutyl)-2-methyl-5-((4-methylthiazol-5-yl)methoxy)benzofuran-3-carboxamide]"
5,< 1000,"Cc1ncsc1COc1ccc2oc(C)c(C(=O)NCCC(F)F)c2c1 [compound 574, N-(3,3-difluoropropyl)-2-methyl-5-((4-methylthiazol-5-yl)methoxy)benzofuran-3-carboxamide]"
6,< 1000,"Cc1ncsc1COc1ccc2oc(C(F)F)c(C(=O)NC3(C(N)=O)COC3)c2c1 [compound 577, N-(3-carbamoyloxetan-3-yl)-2-(difluoromethyl)-5-((4-methylthiazol-5-yl)methoxy)benzofuran-3-carboxamide]"
7,< 1000,"Cc1ncc(COc2ccc3oc(C)c(C(=O)NC4(C(N)=O)COC4)c3c2)s1 [compound 580, N-(3-carbamoyloxetan-3-yl)-2-methyl-5-((2-methylthiazol-5-yl)methoxy)benzofuran-3-carboxamide]"
8,< 1000,"Cc1oc2ccc(OCc3ccccn3)cc2c1C(=O)NC1(C(N)=O)COC1 [compound 581, N-(3-carbamoyloxetan-3-yl)-2-methyl-5-(pyridin-2-ylmethoxy)benzofuran-3-carboxamide]"
9,< 1000,"Cc1oc2ccc(OCc3cccnc3C(F)F)cc2c1C(=O)NC1(C(N)=O)COC1 [compound 584, N-(3-carbamoyloxetan-3-yl)-5-((2-(difluoromethyl)pyridin-3-yl)methoxy)-2-methylbenzofuran-3-carboxamide]"
10,< 1000,"Cc1oc2ccc(OCc3cccnc3O)cc2c1C(=O)NC1(C(N)=O)COC1 [compound 585, N-(3-carbamoyloxetan-3-yl)-5-((2-hydroxypyridin-3-yl)methoxy)-2-methylbenzofuran-3-carboxamide]"
11,< 1000,"COc1ncccc1COc1ccc2oc(C)c(C(=O)NC3(C(N)=O)COC3)c2c1 [compound 586, N-(3-carbamoyloxetan-3-yl)-5-((2-methoxypyridin-3-yl)methoxy)-2-methylbenzofuran-3-carboxamide]"
12,< 1000,"Cc1ncsc1COc1cc2c(C(=O)NC3(C(N)=O)COC3)c(C)oc2cc1F [compound 587, N-(3-carbamoyloxetan-3-yl)-6-fluoro-2-methyl-5-((4-methylthiazol-5-yl)methoxy)benzofuran-3-carboxamide]"
13,1000 to 20000,"Cc1ncsc1COc1ccc2oc(C)c(C(=O)N(C)C3(C(N)=O)COC3)c2c1 [compound 589, N-(3-carbamoyloxetan-3-yl)-N,2-dimethyl-5-((4-methylthiazol-5-yl)methoxy)benzofuran-3-carboxamide]"

# Same assay, conditions: PS (50 μM) stimulated, cpds. 608-666
row,IC50 [nM],SMILES
1,< 1000,"Cc1ncsc1COc1ccc2oc(C)c(C(=O)NCC(C)(C)CO)c2c1 [compound 602, N-(3-hydroxy-2,2-dimethylpropyl)-2-methyl-5-((4-methylthiazol-5-yl)methoxy)benzofuran-3-carboxamide]"
